Measurements from the supplement of paper PMC10307832.

Tests used:
Test in all cases: relative viability (nuclei count vs DMSO), 5 days (fraction); higher = more cells survive
[1] = compound: CCN1C(=O)C2=CC(=C(N=C2N(C1=O)C3CC3)N)C(=O)N + CS(=O)(=O)CCNCc1ccc(-c2ccc3ncnc(Nc4ccc(OCc5cccc(F)c5)c(Cl)c4)c3c2)o1 [Lapatinib] (partner 2 µM)
Outline: (§1)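 Lung cancer cell lines were pin-tool dosed in 1536-well plates on the day after seeding, with either a lone drug or a fixed anchor-drug dose plus five library-drug doses (not always all listed) in √10 steps. Nuclei were counted on 4× images after 5 days. Relative viability is the ratio of treated-well to vehicle-well nuclei counts, with each value a median of duplicate plates.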

[2] = compound: CCN1C(=O)C2=CC(=C(N=C2N(C1=O)C3CC3)N)C(=O)N + Cc1nc(NC(=O)N2CCC[C@H]2C(N)=O)sc1-c1ccnc(C(C)(C)C(F)(F)F)c1 [Alpelisib] (partner 2 µM)
Outline: as §1

[3] = compound: CCN1C(=O)C2=CC(=C(N=C2N(C1=O)C3CC3)N)C(=O)N + Cc1nc(Nc2ncc(C(=O)Nc3c(C)cccc3Cl)s2)cc(N2CCN(CCO)CC2)n1 [Dasatinib] (partner 0.075 µM)
Outline: as §1

[4] = compound: CCN1C(=O)C2=CC(=C(N=C2N(C1=O)C3CC3)N)C(=O)N + N=C(N)NC(=N)NCCc1ccccc1 [Phenformin] (partner 250 µM)
Outline: as §1

[5] = compound: CCN1C(=O)C2=CC(=C(N=C2N(C1=O)C3CC3)N)C(=O)N + NC(=O)Nc1cc(-c2cccc(F)c2)sc1C(=O)N[C@H]1CCCNC1 [AZD7762] (partner 0.2 µM)
Outline: as §1

Cell Line	relative viability ([1]; first compound 0.253 µM)	relative viability ([1]; first compound 0.8 µM)	relative viability ([1]; first compound 2.53 µM)	relative viability ([1]; first compound 8 µM)	relative viability ([2]; first compound 0.253 µM)	relative viability ([2]; first compound 0.8 µM)	relative viability ([2]; first compound 2.53 µM)	relative viability ([2]; first compound 8 µM)	relative viability ([3]; first compound 0.253 µM)	relative viability ([3]; first compound 0.8 µM)	relative viability ([3]; first compound 2.53 µM)	relative viability ([3]; first compound 8 µM)	relative viability ([4]; first compound 0.253 µM)	relative viability ([4]; first compound 0.8 µM)	relative viability ([4]; first compound 2.53 µM)	relative viability ([4]; first compound 8 µM)	relative viability ([5]; first compound 0.253 µM)	relative viability ([5]; first compound 0.8 µM)	relative viability ([5]; first compound 2.53 µM)	relative viability ([5]; first compound 8 µM)
NCI-H1915	0.952	0.942	0.974	0.922	1.1	0.985	1.01	1.06	0.294	0.307	0.312	0.285	0.367	0.362	0.376	0.36	0.722	0.7	0.712	0.594
NCI-H1944	0.873	0.679	0.818	0.756	0.826	0.832	0.749	0.842	0.22	0.217	0.213	0.217	0.255	0.218	0.208	0.204	0.541	0.479	0.528	0.487
NCI-H1975	0.841	0.844	0.868	0.91	0.635	0.653	0.614	0.619	0.381	0.341	0.356	0.268	0.416	0.417	0.406	0.375	0.758	0.622	0.83	0.7
NCI-H1993	0.782	0.817	0.815	0.823	0.651	0.7	0.611	0.669	0.511	0.49	0.477	0.497	0.526	0.457	0.524	0.438	0.74	0.805	0.847	0.771
NCI-H2085	0.721	0.782	0.743	0.68	0.96	0.945	0.924	1.04	0.224	0.259	0.227	0.23	0.737	0.666	0.752	0.684	0.989	0.915	0.921	1.04
NCI-H2087	0.811	1.14	1.21	0.872	1.09	1.07	1.12	1.08	0.746	0.829	0.818	0.753	0.439	0.466	0.443	0.398	1.35	1.32	1.36	1.28
NCI-H2126	0.787	0.778	0.761	0.749	0.759	0.734	0.785	0.734	0.632	0.55	0.596	0.52	0.553	0.512	0.522	0.506	1.02	0.967	0.941	0.958
